The target of experiment [1] is 5-hydroxytryptamine receptor 1B (Rattus norvegicus, UniProt P28564). The experiment is classed as cell membranes, Wistar, Cerebral cortex, Membrane. Note: in other assays of this panel Not Active means under 50% inhibition at 10 µM.
A short description of experiment [2]: DRUGMATRIX: Potassium Channel [KATP] radioligand binding (ligand: [3H] Glyburide). The experiment is classed as cell membranes, Membrane. To be noted: hit-t15, Not Active = under 50% inhibition at 10 µM.
Experiment [3] is described as follows: DRUGMATRIX: Glutamate, AMPA radioligand binding (ligand: [3H] AMPA). It is filed as cell membranes, Rattus norvegicus, Wistar, Cerebral cortex, Membrane. Particulars: Not Active = under 50% inhibition at 10 µM.
Experiment [4] addresses Prostaglandin G/H synthase 1 (Homo sapiens, UniProt P23219). The experiment is described as follows: biochemical. It is filed as tissue-based, Platelet.
The target of experiment [5] is Vascular endothelial growth factor receptor 1 (Homo sapiens, UniProt P17948). Briefly: biochemical. The experiment is classed as cell-based, HUVEC. To be noted: huvec. Note: in other assays of this panel Not Active means under 50% inhibition at 10 µM.
Chain of Vascular endothelial growth factor receptor 1 (P17948 whole entry): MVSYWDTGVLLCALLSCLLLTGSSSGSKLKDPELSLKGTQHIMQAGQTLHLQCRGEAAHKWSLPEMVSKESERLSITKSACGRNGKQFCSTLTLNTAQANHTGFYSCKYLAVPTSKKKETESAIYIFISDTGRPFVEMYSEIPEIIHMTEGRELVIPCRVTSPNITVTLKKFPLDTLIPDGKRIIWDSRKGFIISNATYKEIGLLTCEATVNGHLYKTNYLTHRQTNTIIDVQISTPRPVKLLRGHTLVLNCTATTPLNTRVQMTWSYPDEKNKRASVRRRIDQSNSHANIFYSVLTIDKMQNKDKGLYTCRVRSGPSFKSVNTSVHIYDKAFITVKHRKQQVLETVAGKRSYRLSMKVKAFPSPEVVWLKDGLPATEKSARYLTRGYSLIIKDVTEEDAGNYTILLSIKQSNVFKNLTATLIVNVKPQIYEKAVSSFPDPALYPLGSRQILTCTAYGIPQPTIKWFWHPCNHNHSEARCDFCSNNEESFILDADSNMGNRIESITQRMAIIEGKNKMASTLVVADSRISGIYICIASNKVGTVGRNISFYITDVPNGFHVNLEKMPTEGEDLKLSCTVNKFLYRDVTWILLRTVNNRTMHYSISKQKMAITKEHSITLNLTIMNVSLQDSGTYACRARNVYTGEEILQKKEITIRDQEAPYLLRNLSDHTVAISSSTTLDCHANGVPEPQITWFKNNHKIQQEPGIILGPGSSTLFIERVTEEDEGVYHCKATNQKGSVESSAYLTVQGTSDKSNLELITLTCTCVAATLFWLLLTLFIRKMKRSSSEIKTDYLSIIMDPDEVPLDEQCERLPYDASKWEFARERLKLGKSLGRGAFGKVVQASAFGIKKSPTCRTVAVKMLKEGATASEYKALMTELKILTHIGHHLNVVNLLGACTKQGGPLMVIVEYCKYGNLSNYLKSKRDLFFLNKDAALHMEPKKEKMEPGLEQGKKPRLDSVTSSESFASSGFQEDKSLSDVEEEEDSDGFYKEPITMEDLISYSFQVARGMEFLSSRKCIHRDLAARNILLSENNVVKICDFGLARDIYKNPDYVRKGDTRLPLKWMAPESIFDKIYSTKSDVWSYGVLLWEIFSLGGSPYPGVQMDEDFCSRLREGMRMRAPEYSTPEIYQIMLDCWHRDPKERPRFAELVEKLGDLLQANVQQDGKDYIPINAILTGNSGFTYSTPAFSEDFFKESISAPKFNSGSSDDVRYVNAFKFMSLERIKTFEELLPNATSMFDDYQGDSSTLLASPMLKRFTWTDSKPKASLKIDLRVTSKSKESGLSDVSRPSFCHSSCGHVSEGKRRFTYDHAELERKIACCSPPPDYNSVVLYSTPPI
Experiment [6] deals with T1, Type-2 angiotensin II receptor (Homo sapiens, UniProt P50052).
T1 sequence (P50052 whole entry): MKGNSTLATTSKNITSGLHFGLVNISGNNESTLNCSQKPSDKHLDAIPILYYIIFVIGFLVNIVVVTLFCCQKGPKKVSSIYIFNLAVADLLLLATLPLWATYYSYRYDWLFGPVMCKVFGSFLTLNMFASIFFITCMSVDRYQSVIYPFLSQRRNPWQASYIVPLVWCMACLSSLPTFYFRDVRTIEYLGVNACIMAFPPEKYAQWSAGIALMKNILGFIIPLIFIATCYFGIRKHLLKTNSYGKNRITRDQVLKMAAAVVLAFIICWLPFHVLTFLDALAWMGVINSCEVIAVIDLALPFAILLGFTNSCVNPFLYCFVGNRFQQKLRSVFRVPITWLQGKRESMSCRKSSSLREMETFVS
It is filed as cell-based. Particulars: cho-k1.

The source of these data is ChEMBL document CHEMBL1909046, “DrugMatrix in vitro pharmacology data”.

For orientation: IC50 means the midpoint of a concentration-inhibition curve. In general, Ki refers to a dissociation constant, usually derived from enzyme kinetics or from competition with a known ligand.

Chain of 5-hydroxytryptamine receptor 1B (P28564 whole entry): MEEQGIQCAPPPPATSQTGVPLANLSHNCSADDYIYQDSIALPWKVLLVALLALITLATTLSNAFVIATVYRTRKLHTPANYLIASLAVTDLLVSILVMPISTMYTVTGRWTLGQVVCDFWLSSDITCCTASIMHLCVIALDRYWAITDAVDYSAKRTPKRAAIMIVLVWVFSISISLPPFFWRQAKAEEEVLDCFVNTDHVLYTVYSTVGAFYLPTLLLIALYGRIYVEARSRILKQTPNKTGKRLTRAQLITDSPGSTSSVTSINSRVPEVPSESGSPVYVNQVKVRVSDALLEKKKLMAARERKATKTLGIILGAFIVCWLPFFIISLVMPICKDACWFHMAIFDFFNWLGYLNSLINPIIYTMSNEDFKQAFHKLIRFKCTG
Chain of Prostaglandin G/H synthase 1 (P23219 whole entry): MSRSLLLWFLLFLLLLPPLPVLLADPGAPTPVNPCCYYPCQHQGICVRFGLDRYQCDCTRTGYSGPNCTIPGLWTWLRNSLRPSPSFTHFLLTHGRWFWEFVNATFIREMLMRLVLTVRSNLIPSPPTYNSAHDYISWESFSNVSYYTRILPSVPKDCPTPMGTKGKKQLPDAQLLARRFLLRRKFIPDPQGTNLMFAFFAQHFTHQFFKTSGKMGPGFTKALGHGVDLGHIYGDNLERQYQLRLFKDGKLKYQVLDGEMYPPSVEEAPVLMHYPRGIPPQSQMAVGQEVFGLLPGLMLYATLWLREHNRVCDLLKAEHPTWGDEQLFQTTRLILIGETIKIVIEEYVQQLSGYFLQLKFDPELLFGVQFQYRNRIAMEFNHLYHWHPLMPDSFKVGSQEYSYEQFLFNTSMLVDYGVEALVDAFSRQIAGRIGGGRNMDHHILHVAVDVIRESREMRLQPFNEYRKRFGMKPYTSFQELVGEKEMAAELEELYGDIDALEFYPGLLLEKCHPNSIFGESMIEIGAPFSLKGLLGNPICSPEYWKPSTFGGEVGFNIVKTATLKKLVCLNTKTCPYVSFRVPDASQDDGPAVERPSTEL

On to `C#C[C@]1(O)CC[C@H]2[C@@H]3CCC4=Cc5oncc5C[C@]4(C)[C@H]3CC[C@@]21C` [DANAZOL], for which the IC50 entry in experiment [1], in experiment [2], in experiment [3], in experiment [4] (platelet), in experiment [5] and in experiment [6] was “Not Active” in each case. The Ki result in experiment [2] and in experiment [3] was “Not Active” each time.

Take `CCN[C@@H](C)Cc1cccc(C(F)(F)F)c1` [DEXFENFLURAMINE]: the IC50 entry in experiment [1], in experiment [2], in experiment [3], in experiment [4] (platelet), in experiment [5] and in experiment [6] was “Not Active” in each case. The Ki entry in experiment [2] and in experiment [3] was “Not Active” in each case.

For the molecule `CN1C(=O)CN=C(c2ccccc2)c2cc(Cl)ccc21` [DIAZEPAM], the IC50 entry in experiment [1], in experiment [2], in experiment [3], in experiment [4] (platelet), in experiment [5] and in experiment [6] was “Not Active” in each case. Also, the Ki entry in experiment [2] and in experiment [3] was “Not Active” in each case.

For `CN1C[C@H](C(=O)N[C@]2(C)O[C@@]3(O)[C@@H]4CCCN4C(=O)[C@H](Cc4ccccc4)N3C2=O)C[C@@H]2c3cccc4[nH]cc(c34)C[C@H]21` [DIHYDROERGOTAMINE], the IC50 in experiment [1] (read-out: IC50) is 0.000846 µM; in experiment [2], “Not Active”; in experiment [3] it was “Not Active”; in experiment [4] (platelet) it was “Not Active”; in experiment [5], “Not Active”; in experiment [6], “Not Active”. In addition, the Ki in experiment [1] (read-out: Ki) is 0.000384 µM; in experiment [2], “Not Active”; in experiment [3], “Not Active”.

Turning to `Cc1c(N(C)CS(=O)(=O)[O-])c(=O)n(-c2ccccc2)n1C.[Na+]` [DIPYRONE SODIUM], the IC50 entry in experiment [1], in experiment [2], in experiment [3], in experiment [4] (platelet), in experiment [5] and in experiment [6] was “Not Active” in each case. For the same molecule, the Ki entry in experiment [2] and in experiment [3] was “Not Active” throughout.

Take `CC(CCc1ccc(O)cc1)NCCc1ccc(O)c(O)c1` (configuration not stated) [DOBUTAMINE]: the IC50 result in experiment [1], in experiment [2], in experiment [3], in experiment [4] (platelet), in experiment [5] and in experiment [6] was “Not Active” throughout. Also, the Ki result in experiment [2] and in experiment [3] was “Not Active” each time.

Turning to `CCn1cc(C(=O)O)c(=O)c2cc(F)c(N3CCNCC3)nc21` [ENOXACIN], the IC50 result in experiment [1], in experiment [2], in experiment [3], in experiment [4] (platelet), in experiment [5] and in experiment [6] was “Not Active” in each case. Further, the Ki entry in experiment [2] and in experiment [3] was “Not Active” each time.

As for `CCC(=O)O[C@H]1[C@H](O[C@@H]2[C@@H](C)[C@H](O[C@H]3C[C@@](C)(OC)[C@@H](O)[C@H](C)O3)[C@@H](C)C(=O)O[C@H](CC)[C@@](C)(O)[C@H](O)[C@@H](C)C(=O)[C@H](C)C[C@@]2(C)O)O[C@H](C)C[C@@H]1N(C)C` [ERYTHROMYCIN PROPIONATE], the IC50 entry in experiment [1], in experiment [2], in experiment [3], in experiment [4] (platelet), in experiment [5] and in experiment [6] was “Not Active” throughout. For the same molecule, the Ki entry in experiment [2] and in experiment [3] was “Not Active” in each case.

Consider `C=C(CC)C(=O)c1ccc(OCC(=O)O)c(Cl)c1Cl` [ETHACRYNIC ACID], for which the IC50 entry in experiment [1], in experiment [2], in experiment [3], in experiment [4] (platelet), in experiment [5] and in experiment [6] was “Not Active” throughout. For the same molecule, the Ki result in experiment [2] and in experiment [3] was “Not Active” in each case.

For `C#C[C@]1(O)CC[C@H]2[C@@H]3CCc4cc(O)ccc4[C@H]3CC[C@@]21C` [ETHINYL ESTRADIOL], the IC50 result in experiment [1], in experiment [2], in experiment [3], in experiment [4] (platelet), in experiment [5] and in experiment [6] was “Not Active” each time. Further, the Ki result in experiment [2] and in experiment [3] was “Not Active” throughout.

For `OCCO` [ETHYLENE GLYCOL], the IC50 result in experiment [1], in experiment [2], in experiment [3], in experiment [4] (platelet), in experiment [5] and in experiment [6] was “Not Active” each time. Also, the Ki result in experiment [2] and in experiment [3] was “Not Active” in each case.

Consider `CC(=O)OCC(CCn1cnc2cnc(N)nc21)COC(C)=O` [FAMCICLOVIR], for which the IC50 entry in experiment [1], in experiment [2], in experiment [3], in experiment [4] (platelet), in experiment [5] and in experiment [6] was “Not Active” in each case. In addition, the Ki result in experiment [2] and in experiment [3] was “Not Active” in each case.

On to `O=C(O)Cc1ccc(-c2ccccc2)cc1` [FELBINAC], for which the IC50 entry in experiment [1] is “Not Active”; in experiment [2], “Not Active”; in experiment [3], “Not Active”; in experiment [4] (read-out: IC50), 0.894 µM; in experiment [5], “Not Active”; in experiment [6] it was “Not Active”. For the same molecule, the Ki entry in experiment [2] and in experiment [3] was “Not Active” throughout.

In the case of `CCOC(=O)C1=C(C)NC(C)=C(C(=O)OC)C1c1cccc(Cl)c1Cl` (configuration not stated) [FELODIPINE], the IC50 entry in experiment [1], in experiment [2], in experiment [3], in experiment [4] (platelet), in experiment [5] and in experiment [6] was “Not Active” each time. The Ki result in experiment [2] and in experiment [3] was “Not Active” each time.

Take `Cc1cn[nH]c1` [FOMEPIZOLE]: the IC50 result in experiment [1], in experiment [2], in experiment [3], in experiment [4] (platelet), in experiment [5] and in experiment [6] was “Not Active” throughout. For the same molecule, the Ki result in experiment [2] and in experiment [3] was “Not Active” throughout.

As to `NC[C@@H]1O[C@H](O[C@H]2[C@@H](O)[C@H](O[C@@H]3[C@@H](O)[C@H](N)C[C@H](N)[C@H]3O[C@H]3O[C@H](CN)[C@@H](O)[C@H](O)[C@H]3N)O[C@@H]2CO)[C@H](N)[C@@H](O)[C@@H]1O` [FRAMYCETIN], the IC50 entry in experiment [1], in experiment [2], in experiment [3], in experiment [4] (platelet), in experiment [5] and in experiment [6] was “Not Active” each time. The Ki result in experiment [2] and in experiment [3] was “Not Active” each time.

For `C[C@H]([C@](O)(Cn1cncn1)c1ccc(F)cc1F)S(C)(=O)=O` [GENACONAZOLE], the IC50 entry in experiment [1], in experiment [2], in experiment [3], in experiment [4] (platelet), in experiment [5] and in experiment [6] was “Not Active” each time. Further, the Ki result in experiment [2] and in experiment [3] was “Not Active” each time.

As for `Cc1cnc(C(=O)NCCc2ccc(S(=O)(=O)NC(=O)NC3CCCCC3)cc2)cn1` [GLIPIZIDE], the IC50 entry in experiment [1] is “Not Active”; in experiment [2] (read-out: IC50) it was 0.398 µM; in experiment [3], “Not Active”; in experiment [4] (platelet) it was “Not Active”; in experiment [5], “Not Active”; in experiment [6], “Not Active”. For the same molecule, the Ki was 0.045 µM in experiment [2] (read-out: Ki) and “Not Active” in experiment [3].

For `Cc1c(F)c(N2CCNC(C)C2)cc2c1c(=O)c(C(=O)O)cn2C1CC1` (configuration not stated) [GREPAFLOXACIN], the IC50 result in experiment [1], in experiment [2], in experiment [3], in experiment [4] (platelet), in experiment [5] and in experiment [6] was “Not Active” each time. The Ki entry in experiment [2] and in experiment [3] was “Not Active” in each case.

For the molecule `COc1ccccc1OCC(O)CO` (configuration not stated) [GUAIFENESIN], the IC50 result in experiment [1], in experiment [2], in experiment [3], in experiment [4] (platelet), in experiment [5] and in experiment [6] was “Not Active” each time. The Ki entry in experiment [2] and in experiment [3] was “Not Active” throughout.

On to `N=C(N)N/N=C/c1c(Cl)cccc1Cl` [GUANABENZ], for which the IC50 entry in experiment [1], in experiment [2], in experiment [3], in experiment [4] (platelet), in experiment [5] and in experiment [6] was “Not Active” each time. For the same molecule, the Ki result in experiment [2] and in experiment [3] was “Not Active” in each case.

`C[C@]12CCC(=O)C=C1CC[C@@H]1[C@@H]2[C@@H](O)C[C@@]2(C)[C@H]1CC[C@]2(O)C(=O)CO` [HYDROCORTISONE]: the IC50 entry in experiment [1], in experiment [2], in experiment [3], in experiment [4] (platelet), in experiment [5] and in experiment [6] was “Not Active” each time. In addition, the inhibition constant Ki entry in experiment [2] and in experiment [3] was “Not Active” throughout.
